Source: patent publication US7550469B2, “Heterocyclic amide derivatives and their use as dopamine D3 receptor ligands” (Aventis Pharmaceuticals Inc., priority 2001, dated 2009)
Read-outs that look alike come from different tables or passages of the source.

Target: T1, cloned human dopamine D3 receptors (Homo sapiens, UniProt P35462)
T1 construct: expressed in transfected cells; membrane homogenate
Test: [N-Methyl-3H]Spiroperidol binding to cloned human dopamine D3 receptors (Protocol 1)
How it was run: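 Membranes from CHO cells stably expressing cloned human D3 receptor were used for [N-methyl-3H]spiroperidol (60-90 Ci/mmol) binding. Assay buffer was 0.05 M Tris HCl pH 7.7 with 120 mM NaCl, 5 mM KCl, 2 mM CaCl2 and 1 mM MgCl2, optionally 0.1% ascorbic acid; total ligand concentration calculated from added CPM.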

[1] = the 21st table, read-out: D3 Ki
[2] = the 15th table, read-out: D3 Ki
[3] = the 18th table, read-out: D3 Ki
[4] = the 13th table, unit inferred, read-out: D3Ki
[5] = the 14th table, read-out: D3 Ki
[6] = the 22nd table, read-out: D3 Ki
[7] = the 17th table, read-out: D3 Ki

T1 sequence (P35462 whole entry): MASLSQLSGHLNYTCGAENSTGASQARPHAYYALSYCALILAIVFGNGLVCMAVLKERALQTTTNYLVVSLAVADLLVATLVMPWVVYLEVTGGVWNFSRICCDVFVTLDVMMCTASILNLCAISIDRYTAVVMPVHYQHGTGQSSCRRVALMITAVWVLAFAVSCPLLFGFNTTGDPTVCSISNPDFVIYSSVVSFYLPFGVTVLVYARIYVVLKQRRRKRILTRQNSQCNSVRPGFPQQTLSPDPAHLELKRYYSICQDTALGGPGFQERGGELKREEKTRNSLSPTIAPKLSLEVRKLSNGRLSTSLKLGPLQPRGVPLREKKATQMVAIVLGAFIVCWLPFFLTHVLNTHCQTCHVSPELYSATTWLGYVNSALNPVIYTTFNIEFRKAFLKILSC

Cc1ccccc1C(=O)NCCCCN1[C@H](C)CN(c2csc3cc(F)ccc23)C[C@@H]1C [compound 826941]
Ki [1]: 36.3 nM

O=C(NCCCCN1C2CCC1CC(c1noc3cc(F)ccc13)C2)c1cccs1 (stereo not drawn) [compound 816323]
Ki [2]: 832 nM

O=C(NCc1sccc1CN1CCN(c2csc3cc(F)ccc23)CC1)c1cccc(C(F)(F)F)c1 [compound 826301]
Ki [3]: 94 nM

CC1(C)C(CNC(=O)c2cccc(C(F)(F)F)c2)C1CN1CCN(c2csc3cc(C(F)(F)F)ccc23)CC1 (stereo not drawn) [compound 826278]
Ki (read-out: D3K1): 87 nM

C[C@@H]1CN(c2csc3cc(F)ccc23)C[C@H](C)N1CCCCNC(=O)c1cccc(F)c1 [compound 827053]
Ki [1]: 53.9 nM

O=C(NCCCCCN1CCCN(c2csc3cc(F)ccc23)CC1)c1ccc2cc[nH]c2c1 [S984510]
Ki [4]: 10.1 nM

C[C@@H]1CN(c2csc3cc(F)ccc23)C[C@H](C)N1CCCCNC(=O)c1cc2ccccc2o1 [compound 827036]
Ki [1]: 51.2 nM

O=C(NCCCCCN1CCN(c2csc3cc(C(F)(F)F)ccc23)CC1)c1cccc(Cl)c1 [compound 826765]
Ki (read-out: D3K1): 23 nM
Ki [5]: 23 nM

O=C(NCc1sccc1CN1CCN(c2csc3cc(F)ccc23)CC1)c1ccc2ccccc2c1 [compound 826300]
Ki [3]: 36 nM

COc1ccc2[nH]c(C(=O)NCCCCN3CCCN(c4csc5cc(F)ccc45)CC3)cc2c1 [S977820]
Ki [4]: 1.05 nM

O=C(NCCCCCN1CCCN(c2csc3cc(F)ccc23)CC1)c1cccc(C(F)(F)F)c1 [S984491]
Ki [4]: 54 nM

COc1ccc(C(=O)NCC2C(CN3CCN(c4csc5cc(C(F)(F)F)ccc45)CC3)C2(C)C)cc1OC (stereo not drawn) [compound 826272]
Ki (read-out: D3K1): 62 nM

Clc1ccc(CN2CCN(CC3CC3CN3CCC(c4noc5ccsc45)CC3)CC2)cc1Cl (racemic) [832297GW]
Ki (the 23rd table, read-out: D3 Ki): 393 nM

O=C(NCCCCN1CCN(c2csc3cc(C(F)(F)F)ccc23)CC1)c1ccc(-c2ccccc2)cc1 [compound 815547]
Ki (read-out: D3K1): 4.4 nM

O=C(NCCCCN1C2CCC1CC(c1noc3cc(F)ccc13)C2)c1cc2ccccc2s1 (stereo not drawn) [compound 816334]
Ki [2]: 64.6 nM

O=C(NCCCCN1CCN(c2n[nH]c3ccsc23)CC1)c1ccc(F)c(F)c1 [compound 825163]
Ki [6]: 221 nM

O=C(/C=C/c1ccccc1)NCCCCN1CCCN(c2csc3cc(F)ccc23)CC1 [S981850]
Ki [4]: 0.489 nM

O=C(NCCCCCCN1CCN(c2csc3cc(C(F)(F)F)ccc23)CC1)c1ccc(OC(F)(F)F)cc1 [compound 826749]
Ki (read-out: D3K1): 8.7 nM
Ki [5]: 8.7 nM

CC(C)(C)c1ccc(S(=O)(=O)NCC2CC2CN2CCC(c3noc4ccsc34)CC2)cc1 (stereo not drawn) [compound 831512]
Ki (the 24th table, read-out: D3 Ki): 53.9 nM

O=C(NCCCCCCN1CCN(c2csc3cc(C(F)(F)F)ccc23)CC1)c1cccc(F)c1 [compound 827730]
Ki (read-out: D3K1): 2.7 nM
Ki [5]: 2.7 nM

O=C(NCCCCN1CCN(c2c(Cl)sc3cc(F)ccc23)CC1)c1ccc(F)cc1F [compound 815053]
Ki (read-out: D3K1): 5.8 nM

N#Cc1ccc(C(=O)NCCCCN2CCN(c3noc4ccsc34)CC2)cc1 [compound 829686]
Ki [6]: 42.1 nM

O=C(NCCCCN1CCCN(c2csc3cc(F)ccc23)CC1)c1ccc2ncccc2c1 [compound 817262]
Ki (Table 2, read-out: D3K1): 1.89 nM
Ki (the 16th table, read-out: D3 Ki): 1.89 nM

COc1cccc(C(=O)NCc2sccc2CN2CCN(c3csc4cc(F)ccc34)CC2)c1 [compound 826307]
Ki [3]: 47 nM

COc1ccc(C(=O)NCc2sccc2CN2CCN(c3csc4cc(F)ccc34)CC2)cc1OC [compound 826305]
Ki [3]: 30 nM

O=C(NCCCCN1CCN(c2c(-c3ccccc3)sc3cc(F)ccc23)CC1)c1cccs1 [compound 815879]
Ki (Table 2, read-out: D3K1): 292 nM

O=C(NCCCCN1C2CCC1CC(c1noc3ccccc13)C2)c1ccccc1 (stereo not drawn) [compound 816528]
Ki [2]: 299 nM

O=C(NCc1sccc1CN1CCN(c2csc3cc(F)ccc23)CC1)c1csnn1 [compound 826317]
Ki [3]: 48 nM

O=C(NCC(CO)CCN1CCN(c2csc3cc(C(F)(F)F)ccc23)CC1)c1cccs1 (stereo not drawn) [818926ES]
Ki (Table 2, read-out: D3K1): 206 nM

O=C(NCCCCCN1CCCN(c2csc3cc(F)ccc23)CC1)c1cccc2[nH]ccc12 [S984508]
Ki [4]: 34.8 nM

COc1ccccc1C(=O)NCCCCN1C2CCC1CC(c1noc3cc(F)ccc13)C2 (stereo not drawn) [compound 816343]
Ki [2]: 344 nM

O=C(NCc1sccc1CN1CCN(c2csc3cc(F)ccc23)CC1)c1ccc(C(F)(F)F)cc1 [compound 826311]
Ki [3]: 74 nM

O=C(NCCCCCN1CCN(c2csc3cc(C(F)(F)F)ccc23)CC1)c1ccc2ccccc2c1 [compound 826769]
Ki (read-out: D3K1): 7 nM
Ki [5]: 7 nM

CCCCCOc1ccc(C(=O)NCCCCN2CCN(c3csc4cc(C(F)(F)F)ccc34)CC2)cc1 [compound 815552]
Ki (read-out: D3K1): 140 nM

CC1=C(C(=O)NCCCCCN2CCN(c3csc4cc(F)ccc34)CC2)Cc2ccccc21 [compound 826792]
Ki [5]: 3.91 nM

CCCCCCc1ccc(C(=O)NCCCCCN2CCC(c3noc4ccsc34)CC2)cc1 [compound 816219]
Ki [4]: 132 nM

O=C(COc1ccccc1)NC/C=C\CN1CCN(c2csc3cc(C(F)(F)F)ccc23)CC1 [compound 826347]
Ki (read-out: D3K1): 67 nM

O=C(NCCCCN1CCN(c2n[nH]c3ccsc23)CC1)c1ccc(F)cc1 [compound 825162]
Ki [6]: 114 nM

O=C(NCCCCCN1CCN(c2csc3cc(C(F)(F)F)ccc23)CC1)c1cccc(C(F)(F)F)c1 [compound 826770]
Ki (read-out: D3K1): 14 nM
Ki [5]: 14 nM

Cc1ccc(C(=O)NCCCCN2C3CCC2CC(c2noc4ccccc24)C3)cc1 (stereo not drawn) [compound 816526]
Ki [2]: 375 nM

O=C(NCCCCCN1CCC(c2noc3ccsc23)CC1)c1cc2ccccc2s1 [compound 816196]
Ki [4]: 161 nM

O=C(NCCCCN1CCN(c2csc3cc(C(F)(F)F)ccc23)CC1)C1CCCC1 [compound 815559]
Ki (read-out: D3K1): 13.5 nM

O=C(Nc1ccc(CN2CCN(c3csc4cc(F)ccc34)CC2)cc1)c1ccccc1F [compound 822207]
Ki (the 19th table, read-out: D3 Ki): 221 nM

C[C@@H]1CN(c2csc3cc(F)ccc23)C[C@H](C)N1CCCCNC(=O)c1cccc2[nH]ccc12 [compound 826963]
Ki [1]: 72.9 nM

O=C(NCCCCCN1CCCN(c2csc3cc(F)ccc23)CC1)c1ccc2[nH]ccc2c1 [S984509]
Ki [4]: 11.9 nM

O=C(Cc1ccccc1F)NCCCCN1CCCN(c2csc3cc(F)ccc23)CC1 [S982514]
Ki [4]: 0.59 nM

O=C(NCCCCN1CCCN(c2csc3cc(F)ccc23)CC1)c1ccc2[nH]ccc2c1 [S977824]
Ki [4]: 1.14 nM

O=C(N[C@H](CO)CCCN1CCN(c2csc3cc(C(F)(F)F)ccc23)CC1)c1cc2ccccc2s1 [compound 815708]
Ki (Table 2, read-out: D3K1): 180 nM
Ki (read-out: D3K1): 180 nM
Ki [5]: 180 nM

O=C(NCCCCN1CCN(c2csc3cc(C(F)(F)F)ccc23)CC1)c1ccccc1C(F)(F)F [compound 815553]
Ki (read-out: D3K1): 41 nM

Cc1oc(-c2ccccc2)cc1C(=O)NCCCCN1CCCN(c2csc3cc(F)ccc23)CC1 [S981839]
Ki [4]: 1.4 nM

COc1ccc(C(=O)NCCCCCN2CCC(c3noc4ccsc34)CC2)cc1OC [compound 816215]
Ki [4]: 272 nM

O=C(NCCCCN1CCN(c2c(Cl)sc3cc(C(F)(F)F)ccc23)CC1)c1ccc([N+](=O)[O-])cc1 [compound 815569]
Ki (read-out: D3K1): 13 nM

Cc1nnsc1C(=O)NCCCCN1CCCN(c2csc3cc(F)ccc23)CC1 [S981837]
Ki [4]: 1.3 nM

CC1(C)C(CNC(=O)C2CC2c2ccccc2)C1CN1CCN(c2csc3cc(C(F)(F)F)ccc23)CC1 (mixture of isomers) [compound 826283]
Ki (read-out: D3K1): 6.8 nM

COc1ccccc1C(=O)NCCCCCN1CCCN(c2csc3cc(F)ccc23)CC1 [S984492]
Ki [4]: 34.7 nM

O=C(NCCCCCN1CCN(c2csc3cc(F)ccc23)CC1)c1cccc2ccccc12 [compound 826778]
Ki [5]: 2.75 nM

O=C(NCCCCCN1CCN(c2csc3cc(F)ccc23)CC1)c1cccc(F)c1 [compound 826782]
Ki [5]: 4.55 nM

CC1(C)C(CNC(=O)c2ccc3ccccc3c2)C1CN1CCN(c2csc3cc(C(F)(F)F)ccc23)CC1 (stereo not drawn) [compound 826277]
Ki (read-out: D3K1): 20.3 nM

Cc1csc2c(N3CCN(CCCCNC(=O)CCCc4ccccc4)CC3)noc12 [compound 830748]
Ki [6]: 63.8 nM

O=C(N[C@H](CO)CCCN1CCN(c2csc3cc(C(F)(F)F)ccc23)CC1)c1ccc2c(c1)S(=O)(=O)c1ccccc1C2=O [compound 815709]
Ki (Table 2, read-out: D3K1): 124 nM
Ki (read-out: D3K1): 124 nM
Ki [5]: 124 nM

O=C(NCCCCN1CCN(c2c(Cl)sc3cc(F)ccc23)CC1)c1ccc(C(F)(F)F)cc1 [compound 815067]
Ki (read-out: D3K1): 20.1 nM

O=C(NCC1CC1CN1CCCN(c2csc3cc(F)ccc23)CC1)c1cc2ccccc2s1 (racemic) [compound 830407]
Ki [7]: 10.4 nM

N#Cc1cccc(C(=O)NC/C=C\CN2CCN(c3csc4cc(C(F)(F)F)ccc34)CC2)c1 [compound 826343]
Ki (read-out: D3K1): 53 nM

O=C(NCCCCN1CCN(c2noc3ccsc23)CC1)c1cc2ccccc2[nH]1 [compound 829682]
Ki [6]: 18.9 nM

O=C(NCc1sccc1CN1CCN(c2csc3cc(F)ccc23)CC1)c1cc2ccccc2[nH]1 [compound 826322]
Ki [3]: 296 nM

O=C(NCCCCN1CCN(c2c(-c3ccccc3)sc3cc(F)ccc23)CC1)c1ccc(F)cc1 [compound 815883]
Ki (Table 2, read-out: D3K1): 339 nM

CC1(c2ccc(C(=O)NCCCCN3CCCN(c4csc5cc(F)ccc45)CC3)cc2)NC(=O)NC1=O (stereo not drawn) [S982513]
Ki [4]: 0.132 nM

O=C(NCCCCCN1CCC(c2noc3ccsc23)CC1)c1cccc(Cl)c1 [compound 816214]
Ki [4]: 264 nM

CC(=O)C1CC(CC(=O)NC/C=C\CN2CCN(c3csc4cc(C(F)(F)F)ccc34)CC2)C1(C)C (stereo not drawn) [compound 827737]
Ki (Table 2, read-out: D3K1): 108 nM

O=C(c1cc2ccccc2s1)N(Cc1ccccc1)CC1CC1CN1CCCN(c2csc3cc(F)ccc23)CC1 (racemic) [compound 830398]
Ki [7]: 15.9 nM

O=C(NCC(CO)CCN1CCN(c2csc3cc(C(F)(F)F)ccc23)CC1)c1cc2ccccc2o1 (stereo not drawn) [818932ES]
Ki (Table 2, read-out: D3K1): 207 nM
